Like-named read-outs stand apart in the source and are kept apart here.
How the values were obtained:
HSP90α protein [1] = molecular target: T1, HSP90α protein (Homo sapiens, UniProt P07900); test: HSP90α-binding FP (FITC) assay; conditions: FP competition with FITC-geldanamycin
T1 construct: purchased BPS Bioscience #50298
Protocol: Binding of test compounds to HSP90α protein was measured by fluorescent polarization (FP) using the HSP90α (N-terminal) Assay Kit (BPS Bioscience, #50298), following the manufacturer's instructions, except as noted. Fluorescently labeled HSP90-binding compounds, either the provided FITC-geldanamycin (5 nM final concentration) or RNK04010, a triazolone-based HSP90 binding small molecule labeled with BODIPY through a piperazine-phenyl linker (5 nM final concentration) were employed. A 2.5-fold serial dilution of each test compound ranging from 20 μM to 5.2 nM was assayed for binding to HSP90α. After the final step of adding HSP90α protein to each assay well, plates were mixed by brief shaking, incubated at 25° C. for 120 min for FITC-geldanamycin or 300 min for RNK04010, and fluorescence was measured using a PerkinElmer EnVision Plate Reader.

ERBB2 = ERBB2 (HER2) flow cytometry protein degradation assay in BT-474 cells; format: cell-based, human; conditions: DC50, BT-474 cells, 24 hr
In short: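 BT-474 cells trypsinised after compound treatment and stained with PE-conjugated anti-ERBB2 antibody, 30 min at 25° C in the dark, then fixed in 1% paraformaldehyde for flow cytometry. % inhibition = 100−(D−B)/(S−B)*100, using treated, untreated-stained and unstained cell fluorescence.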

[2] = system: MV-4-11 human acute myeloid leukemia; test: MV-4-11 CCK-8 proliferation assay; format: cell-based; conditions: MV-4-11 cells, 72 hr
In short: (§1)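 Lines were maintained according to ATCC guidance. Compounds were then applied as a 3-fold titration from 20 μM to 1.02 nM, and proliferation was measured by CCK-8 absorbance, normalised to DMSO controls minus a no-cell blank.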

[3] = system: U-87 MG human glioblastoma; test: U87 MG CCK-8 proliferation assay; format: cell-based; conditions: U-87 MG cells, read-out: U87MG CCK-8
In short: as §1

MAPK7 [4] = molecular target: T2, MAPK7 (Homo sapiens, UniProt Q13164); test: MAPK7 Western blot protein degradation assay in U-87 MG cells; format: cell-based; design: U-87 MG human glioblastoma cells, which express MAPK7; endogenous in cells; host or cells: U-87 MG; conditions: 48 hr
Protocol: U-87 MG human glioblastoma cells were seeded in 6- or 12-well tissue culture plates, and after 1 hr, test compounds were added at various concentrations and incubated at 37° C./5% CO2 for 48 hr. Cells were then washed with cold PBS, aspirated and cold RIPA buffer containing a protease/phosphatase inhibitor cocktail was added to lyse cells. After centrifugation, the total protein concentrations of cell lysates were determined using the BCA protein assay. Samples were normalized for equivalent protein concentrations, 5×SDS-PAGE loading buffer added and denatured at 100° C. for 10 min. 20 μl of each sample/well was loaded on a SDS-PAGE gel and electrophoresed for 20 min at 80 V, then 120 V for 1.5 hr. Gels were then electroblotted to nitrocellulose membranes using a wet-transfer method at 250 mA for 2.5 hr. Membranes were incubated with blocking buffer for 1 hr and washed 3 times with TBST for 5 min. Membranes were then incubated with anti-MAPK7 (anti-ERK5; Cell Signaling Technology, #12950) and anti-3-Actin (Cell Signaling Technology, #3700) monoclonal antibodies diluted in blocking buffer at 4° C. overnight per the manufacturer's recommendations. After washing 3 times, blots were incubated with appropriately labeled secondary antibodies for 1 hr at room temperature and washed again. Fluorescence imaging and quantitation was performed using a LI-COR Odyssey. Results was analyzed using GraphPad Prism 7 software.

HSP90α protein [5] = molecular target: T1, HSP90α protein; test: HSP90α-binding FP (BODIPY) assay; conditions: FP competition with BODIPY-labeled RNK04010
In short: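 Fluorescence polarization measured competition with N-terminal human HSP90α, using either FITC-geldanamycin or BODIPY-labelled triazolone RNK04010 as tracer (5 nM final each). Compounds were tested in 2.5-fold dilutions from 20 μM to 5.2 nM, with incubation at 25 °C for 120 min (FITC) or 300 min (BODIPY).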

MAPK7 [6] = molecular target: T2, MAPK7; test: MAPK7 kinase assay (ADP-Glo); format: biochemical; design: purchased Carna Biosciences #04-146; conditions: ATP 340 μM
Protocol: The inhibition of MAPK7 kinase activity by test compounds was measured by the ADP-Glo Kinase Assay (Promega, #V6930), following the manufacturer's instructions, except as noted. 3-fold serial dilutions of each test compound were prepared ranging from 50 μM to 2.54 nM. Also, as a positive control, a 4-fold serial dilution of the MAPK7 inhibitor, XMD17-109 (MedChemExpress, #HY-15665) was prepared ranging from 10 μM to 0.04 nM. In brief, in 384-well plates, test compounds were added to the kinase reaction mix containing recombinant MAPK7 protein (Carna Biosciences, #04-146; 20 nM final concentration), myelin basic protein (SignalChem Biotech, #M42-54G; 0.1 mg/ml final concentration) and ATP (340 μM final concentration), then mixed by shaking and incubated with ADP-Glo Reagent and Kinase Detection Reagent. Luminescence was measured on a BioTek plate reader.
Lumpositive: The average ratio for 10 wells of positive controls (10 μM XMD17-109) across the plate.
Lumvehicle: The average ratio for 10 wells of negative controls (0.5% DMSO) across the plate.

T2 sequence (Q13164 whole entry): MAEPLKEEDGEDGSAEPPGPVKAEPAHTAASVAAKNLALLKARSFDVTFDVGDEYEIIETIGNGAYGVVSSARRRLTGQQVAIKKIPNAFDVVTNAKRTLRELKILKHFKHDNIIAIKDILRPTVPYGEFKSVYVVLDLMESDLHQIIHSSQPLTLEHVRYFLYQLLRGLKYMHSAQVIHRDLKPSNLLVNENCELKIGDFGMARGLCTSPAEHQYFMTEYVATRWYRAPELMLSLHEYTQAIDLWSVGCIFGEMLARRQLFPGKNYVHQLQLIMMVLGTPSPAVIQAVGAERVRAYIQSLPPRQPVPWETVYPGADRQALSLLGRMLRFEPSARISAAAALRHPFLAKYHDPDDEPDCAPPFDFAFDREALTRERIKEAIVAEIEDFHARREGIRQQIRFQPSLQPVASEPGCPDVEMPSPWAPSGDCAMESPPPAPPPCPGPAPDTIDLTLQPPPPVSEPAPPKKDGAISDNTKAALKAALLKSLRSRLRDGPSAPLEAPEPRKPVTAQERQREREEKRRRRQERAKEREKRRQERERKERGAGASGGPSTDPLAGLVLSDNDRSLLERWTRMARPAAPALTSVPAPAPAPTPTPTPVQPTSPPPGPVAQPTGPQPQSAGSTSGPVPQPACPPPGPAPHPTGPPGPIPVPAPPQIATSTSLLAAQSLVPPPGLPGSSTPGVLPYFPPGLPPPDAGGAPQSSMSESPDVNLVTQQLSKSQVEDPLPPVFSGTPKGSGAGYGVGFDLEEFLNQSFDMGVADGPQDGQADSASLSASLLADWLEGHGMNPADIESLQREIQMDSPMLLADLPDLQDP

Row | Molecule | IC50 (HSP90α protein [1]) [nM] | EC50 ([2]; Homo sapiens, MV4-11) [nM] | EC50 ([3]; Homo sapiens, U-87 MG, 72 h) [nM] | MAPK7 degradation (30 nM) (MAPK7 [4]; 30 nM) | MAPK7 degradation (100 nM) (MAPK7 [4]; 100 nM) | MAPK7 degradation (1000 nM) (MAPK7 [4]; 1000 nM) | IC50 (HSP90α protein [5]) [nM] | IC50 (MAPK7 [6]) [nM] | ERBB2 degradation (ERBB2) | EC50 [2] [nM] | EC50 ([3]; 72 hr) [nM]
1 | CCOc1cc(N2CCC(C(=O)NCCOCc3ccc(-n4c(O)nnc4-c4cc(C(C)C)c(O)cc4O)cc3)CC2)ccc1Nc1ncc2c(n1)N(C)c1ccccc1C(=O)N2C [Compound 005, N-(2-((4-(3-(2,4-dihydroxy-5-isopropylphenyl)-5-hydroxy-4H-1,2,4-triazol-4-yl)benzyl)oxy)ethyl)-1-(4-((5,11-dimethyl-6-oxo-6,11-dihydro-5H-benzo[e]pyrimido[5,4-b][1,4]diazepin-2-yl)amino)-3-ethoxyphenyl)piperidine-4-carboxamide] | 100 to 1000 | < 100 | < 100 | C (< 33% degradation) | C (< 33% degradation) | A (>66% degradation) |  |  | B (DC50 = 100-1000 nM) |  | 
2 | CCOc1cc(N2CCC(C(=O)NCCOc3cccc(CN(C)Cc4ccc(-n5c(O)nnc5-c5cc(C(C)C)c(O)cc5O)cc4)c3)CC2)ccc1Nc1ncc2c(n1)N(C)c1ccccc1C(=O)N2C [Compound 007, N-(2-(3-(((4-(3-(2,4-dihydroxy-5-isopropylphenyl)-5-hydroxy-4H-1,2,4-triazol-4-yl)benzyl)(methyl)amino)methyl)phenoxy)ethyl)-1-(4-((5,11-dimethyl-6-oxo-6,11-dihydro-5H-benzo[e]pyrimido[5,4-b][1,4]diazepin-2-yl)amino)-3-ethoxyphenyl)piperidine-4-carboxamide] | 100 to 1000 | < 100 | 100 to 1000 |  |  |  |  |  | B (DC50 = 100-1000 nM) |  | 
3 | (1R,4R)-4-((2-((12-azanylidene)-l3-methyl)-5-(6,6-dimethyl-4-oxo-3-(trifluoromethyl)-4,5,6,7-tetrahydro-1H-indazol-1-yl)phenyl)amino)cyclohexyl (2-(2-(1-(3-ethoxy-4-(ethyl(5-methyl-11-(methylsulfonyl)-6-oxo-6,11-dihydro-5H-benzo[e]pyrimido[5,4-b][1,4]diazepin-2-yl)amino)phenyl)piperidine-4-carboxamido)ethoxy)ethyl)carbamate [Compound 113] |  |  |  |  |  |  | > 1000 | > 1000 |  | > 1000 | > 1000
4 | (1R,4R)-4-((2-cyano-5-(6,6-dimethyl-4-oxo-3-(trifluoromethyl)-4,5,6,7-tetrahydro-1H-indazol-1-yl)phenyl)amino)cyclohexyl (2-(2-(1-(4-((5,11-dimethyl-6-oxo-6,11-dihydro-5H-benzo[e]pyrimido[5,4-b][1,4]diazepin-2-yl)amino)-3-ethoxyphenyl)piperidine-4-carboxamido)ethoxy)ethyl)carbamate [Compound 109] |  |  |  |  |  |  | > 1000 | > 1000 |  | > 1000 | > 1000

Now from value to molecule, other results behind:

Row | IC50 (HSP90α protein [1]) [nM] | EC50 ([2]; Homo sapiens, MV4-11) [nM] | EC50 ([3]; Homo sapiens, U-87 MG, 72 h) [nM] | MAPK7 degradation (30 nM) (MAPK7 [4]; 30 nM) | MAPK7 degradation (100 nM) (MAPK7 [4]; 100 nM) | MAPK7 degradation (1000 nM) (MAPK7 [4]; 1000 nM) | IC50 (HSP90α protein [5]) [nM] | IC50 (MAPK7 [6]) [nM] | Molecule | ERBB2 degradation (ERBB2) | EC50 [2] [nM] | EC50 ([3]; 72 hr) [nM]
5 |  | > 1000 | > 1000 |  |  |  | > 1000 | > 1000 | CCOc1cc(N2CCC(C(=O)N3CCC(COc4ccc(Nc5cc(-n6nc(C(F)(F)F)c7c6CC(C)(C)CC7=O)ccc5C(N)=O)cc4)CC3)CC2)ccc1Nc1ncc2c(n1)N(S(C)(=O)=O)c1ccccc1C(=O)N2C [Compound 110, 4-(6,6-dimethyl-4-oxo-3-(trifluoromethyl)-4,5,6,7-tetrahydro-1H-indazol-1-yl)-2-((4-((1-(1-(3-ethoxy-4-((5-methyl-11-(methylsulfonyl)-6-oxo-6,11-dihydro-5H-benzo[e]pyrimido[5,4-b][1,4]diazepin-2-yl)amino)phenyl)piperidine-4-carbonyl)piperidin-4-yl)methoxy)phenyl)amino)benzamide] |  |  | 
6 |  | > 1000 | > 1000 |  |  |  | > 1000 | > 1000 | CCOc1cc(N2CCC(C(=O)NCCOCCNC(=O)O[C@H]3CC[C@H](Nc4cc(-n5nc(C(F)(F)F)c6c5CC(C)(C)CC6=O)ccc4C#N)CC3)CC2)ccc1Nc1ncc2c(n1)N(S(C)(=O)=O)c1ccccc1C(=O)N2C [Compound 111, (1R,4R)-4-((2-((12-azanylidene)-l3-methyl)-5-(6,6-dimethyl-4-oxo-3-(trifluoromethyl)-4,5,6,7-tetrahydro-1H-indazol-1-yl)phenyl)amino)cyclohexyl (2-(2-(1-(3-ethoxy-4-((5-methyl-11-(methylsulfonyl)-6-oxo-6,11-dihydro-5H-benzo[e]pyrimido[5,4-b][1,4]diazepin-2-yl)amino)phenyl)piperidine-4-carboxamido)ethoxy)ethyl)carbamate] |  |  | 
7 |  | < 100 | 100 to 1000 |  |  |  | < 100 | > 1000 | CCOc1cc(N2CCC(C(=O)N3CCC(CN4CCN(Cc5ccc(-n6c(O)nnc6-c6cc(C(C)C)c(O)cc6O)cc5)CC4)CC3)CC2)ccc1N(CC)c1ncc2c(n1)N(C)c1ccccc1C(=O)N2C [Compound 133, 2-((4-(4-(4-((4-(4-(3-(2,4-dihydroxy-5-isopropylphenyl)-5-hydroxy-4H-1,2,4-triazol-4-yl)benzyl)piperazin-1-yl)methyl)piperidine-1-carbonyl)piperidin-1-yl)-2-ethoxyphenyl)(ethyl)amino)-5,11-dimethyl-5,11-dihydro-6H-benzo[e]pyrimido[5,4-b][1,4]diazepin-6-one] |  |  | 
8 |  | < 100 | 100 to 1000 |  |  |  | < 100 | > 1000 | CCNC(=O)c1nnc(-c2cc(CC)c(O)cc2O)n1-c1ccc(CN2CCN(CC3CCN(C(=O)C4CCN(c5ccc(N(CC)c6ncc7c(n6)N(S(C)(=O)=O)c6ccccc6C(=O)N7C)c(OCC)c5)CC4)CC3)CC2)cc1 [Compound 135, 4-(4-((4-((1-(1-(3-ethoxy-4-(ethyl(5-methyl-11-(methylsulfonyl)-6-oxo-6,11-dihydro-5H-benzo[e]pyrimido[5,4-b][1,4]diazepin-2-yl)amino)phenyl)piperidine-4-carbonyl)piperidin-4-yl)methyl)piperazin-1-yl)methyl)phenyl)-N-ethyl-5-(5-ethyl-2,4-dihydroxyphenyl)-4H-1,2,4-triazole-3-carboxamide] |  |  | 
9 |  |  |  |  |  |  |  | 100 to 1000 | CCOc1cc(N2CCC(C(=O)N3CCC(CN4CCN(Cc5ccc(-n6c(C(=O)NC(C)C(F)(F)F)nnc6-c6cc(CC)c(O)cc6OC)cc5)CC4)CC3)CC2)ccc1Nc1ncc2c(n1)N(S(C)(=O)=O)c1ccccc1C(=O)N2C (stereo not drawn) [Compound 142, 4-(4-((4-((1-(1-(3-ethoxy-4-((5-methyl-11-(methylsulfonyl)-6-oxo-6,11-dihydro-5H-benzo[e]pyrimido[5,4-b][1,4]diazepin-2-yl)amino)phenyl)piperidine-4-carbonyl)piperidin-4-yl)methyl)piperazin-1-yl)methyl)phenyl)-5-(5-ethyl-4-hydroxy-2-methoxyphenyl)-N-(1,1,1-trifluoropropan-2-yl)-4H-1,2,4-triazole-3-carboxamide] |  |  | 

Source: patent US20240124460A1, “METHODS AND COMPOSITIONS FOR TARGETED PROTEIN DEGRADATION” (Ranok Therapeutics (Hangzhou) Co. Ltd., priority 2020, published 2024)
